The OligoGym collection
“And” between values parts separate entries of the source, which are not always exact repeats. Equal values may be shown once. HELM strings list units from the 5' end as sugar, base in round brackets, then linkage (d deoxyribose, r ribose, m 2'-O-methyl, p phosphodiester). Strings are as the collection lists them, not checked against the first reports. ss, as = sense and antisense strand; [lna] = locked nucleic acid (LNA)

Settings: siRNA
Also: test system not given here.

Substance	target mRNA knockdown
RNA1{r(C)p.r(U)p.r(G)p.r(A)p.r(C)p.r(C)p.r(G)p.r(G)p.r(A)p.r(A)p.r(G)p.r(C)p.r(G)p.r(C)p.r(U)p.m(U)p.r(A)p.r(A)p.r(A)p.r(T)p.r(T)}|RNA2{r(U)p.r(U)p.m(U)p.r(A)p.r(A)p.r(G)p.r(C)p.r(G)p.r(C)p.r(U)p.r(U)p.r(C)p.r(C)p.r(G)p.r(G)p.r(U)p.r(C)p.r(A)p.r(G)p.r(T)p.r(T)}$$$RNA1{StrandType:ss}|RNA2{StrandType:as}$	86%
RNA1{r(C)p.r(U)p.r(G)p.r(G)p.r(U)p.r(A)p.r(A)p.r(A)p.r(G)p.r(C)p.r(A)p.r(U)p.r(U)p.r(C)p.r(A)p.r(G)p.r(U)p.r(A)p.r(U)p.d(T)p.d(T)}|RNA2{r(A)p.r(U)p.r(A)p.r(C)p.r(U)p.r(G)p.r(A)p.r(A)p.r(U)p.r(G)p.r(C)p.r(U)p.r(U)p.r(U)p.r(A)p.r(C)p.r(C)p.r(A)p.r(G)p.d(T)p.d(T)}$$$RNA1{StrandType:ss}|RNA2{StrandType:as}$	82%
RNA1{r(C)p.r(U)p.r(U)p.r(A)p.r(C)p.r(G)p.r(C)p.r(U)p.r(C)p.r(U)p.r(G)p.r(U)p.r(A)p.r(C)p.r(U)p.r(U)p.r(C)p.r(G)p.r(A)p.d(T)p.d(T)}|RNA2{r(U)p.r(C)p.r(G)p.r(A)p.r(A)p.r(G)p.r(U)p.r(A)p.r(C)p.r(U)p.r(C)p.r(A)p.r(G)p.r(C)p.r(G)p.r(U)p.r(A)p.r(A)p.r(G)p.d(T)p.d(T)}$$$RNA1{StrandType:ss}|RNA2{StrandType:as}$	92% and 94%
RNA1{r(C)p.r(U)p.r(U)p.r(A)p.r(C)p.r(G)p.r(C)p.r(U)p.r(G)p.r(A)p.r(G)p.r(U)p.r(A)p.r(C)p.r(U)p.r(U)p.r(C)p.r(G)p.r(A)p.[lna](T)p.[lna](T)}|RNA2{[lna](T)p.r(C)p.r(G)p.r(A)p.r(A)p.r(G)p.r(U)p.r(A)p.r(C)p.r(U)p.r(C)p.r(A)p.r(G)p.r(C)p.r(G)p.r(U)p.r(A)p.r(A)p.r(G)p.[lna](T)p.[lna](T)}$$$RNA1{StrandType:ss}|RNA2{StrandType:as}$	27%
RNA1{r(C)p.r(U)p.r(U)p.r(A)p.r(C)p.r(G)p.r(C)p.r(U)p.r(G)p.r(A)p.r(G)p.r(U)p.r(A)p.r(C)p.r(U)p.r(U)p.r(C)p.r(G)p.r(A)p.[lna](T)p.[lna](T)}|RNA2{r(U)p.r(C)p.r(G)p.r(A)p.r(A)p.r(G)p.r(U)p.r(A)p.r(C)p.r(U)p.r(C)p.r(A)p.r(G)p.r(C)p.r(G)p.r(U)p.r(A)p.r(A)p.r(G)p.[lna](T)p.[lna](T)}$$$RNA1{StrandType:ss}|RNA2{StrandType:as}$	93% and 92%
RNA1{r(C)p.r(U)p.r(U)p.r(A)p.r(C)p.r(G)p.r(C)p.r(U)p.r(G)p.r(A)p.r(G)p.r(U)p.r(A)p.r(C)p.r(U)p.r(U)p.r(C)p.r(G)p.r(A)p.[lna](T)p.[lna](T)}|RNA2{r(U)p.r(C)p.r(G)p.r(A)p.r(A)p.r(G)p.r(U)p.r(A)p.r(C)p.r(U)p.r(C)p.r(A)p.r(G)p.r(C)p.r(G)p.r(U)p.r(A)p.r(A)p.r(G)p.d(T)p.d(T)}$$$RNA1{StrandType:ss}|RNA2{StrandType:as}$	96%
RNA1{r(C)p.r(U)p.r(U)p.r(A)p.r(C)p.r(G)p.r(C)p.r(U)p.r(G)p.r(A)p.r(G)p.r(U)p.r(A)p.r(C)p.r(U)p.r(U)p.r(C)p.r(G)p.r(A)p.[lna](T)p.[lna](T)}|RNA2{r(U)p.r(C)p.r(G)p.r(A)p.r(A)p.r(G)p.r(U)p.r(A)p.r(C)p.r(U)p.r(C)p.r(A)p.r(G)p.r(C)p.r(G)p.r(U)p.r(A)p.r(A)p.r(G)p.r(T)p.r(T)}$$$RNA1{StrandType:ss}|RNA2{StrandType:as}$	97%
RNA1{r(C)p.r(U)p.r(U)p.r(A)p.r(C)p.r(G)p.r(C)p.r(U)p.r(G)p.r(A)p.r(G)p.r(U)p.r(A)p.r(C)p.r(U)p.r(U)p.r(C)p.r(G)p.r(A)p.d(T)p.d(T)}|RNA2{[lna](T)p.r(C)p.r(G)p.r(A)p.r(A)p.r(G)p.r(U)p.[lna](A)p.r(C)p.r(U)p.[lna](C)p.r(A)p.r(G)p.r(C)p.r(G)p.r(U)p.[lna](A)p.r(A)p.r(G)p.[lna](T)p.[lna](T)}$$$RNA1{StrandType:ss}|RNA2{StrandType:as}$	15%
RNA1{r(C)p.r(U)p.r(U)p.r(A)p.r(C)p.r(G)p.r(C)p.r(U)p.r(G)p.r(A)p.r(G)p.r(U)p.r(A)p.r(C)p.r(U)p.r(U)p.r(C)p.r(G)p.r(A)p.d(T)p.d(T)}|RNA2{[lna](T)p.r(C)p.r(G)p.r(A)p.r(A)p.r(G)p.r(U)p.r(A)p.r(C)p.r(U)p.r(C)p.r(A)p.r(G)p.r(C)p.r(G)p.r(U)p.r(A)p.r(A)p.r(G)p.[lna](T)p.[lna](T)}$$$RNA1{StrandType:ss}|RNA2{StrandType:as}$	55%
RNA1{r(C)p.r(U)p.r(U)p.r(A)p.r(C)p.r(G)p.r(C)p.r(U)p.r(G)p.r(A)p.r(G)p.r(U)p.r(A)p.r(C)p.r(U)p.r(U)p.r(C)p.r(G)p.r(A)p.d(T)p.d(T)}|RNA2{r(U)p.r(C)p.r(G)p.r(A)p.r(A)p.r(G)p.r(U)p.r(A)p.r(C)p.[lna](T)p.r(C)p.r(A)p.r(G)p.r(C)p.r(G)p.r(U)p.r(A)p.r(A)p.r(G)p.[lna](T)p.[lna](T)}$$$RNA1{StrandType:ss}|RNA2{StrandType:as}$	52%
RNA1{r(C)p.r(U)p.r(U)p.r(A)p.r(C)p.r(G)p.r(C)p.r(U)p.r(G)p.r(A)p.r(G)p.r(U)p.r(A)p.r(C)p.r(U)p.r(U)p.r(C)p.r(G)p.r(A)p.d(T)p.d(T)}|RNA2{r(U)p.r(C)p.r(G)p.r(A)p.r(A)p.r(G)p.r(U)p.r(A)p.r(C)p.[lna](T)p.r(C)p.r(A)p.r(G)p.r(C)p.r(G)p.r(U)p.r(A)p.r(A)p.r(G)p.[lna](T)p.r(T)}$$$RNA1{StrandType:ss}|RNA2{StrandType:as}$	93%
RNA1{r(C)p.r(U)p.r(U)p.r(A)p.r(C)p.r(G)p.r(C)p.r(U)p.r(G)p.r(A)p.r(G)p.r(U)p.r(A)p.r(C)p.r(U)p.r(U)p.r(C)p.r(G)p.r(A)p.d(T)p.d(T)}|RNA2{r(U)p.r(C)p.r(G)p.r(A)p.r(A)p.r(G)p.r(U)p.r(A)p.r(C)p.r(U)p.r(C)p.r(A)p.r(G)p.r(C)p.r(G)p.r(U)p.r(A)p.r(A)p.r(G)p.[lna](T)p.[lna](T)}$$$RNA1{StrandType:ss}|RNA2{StrandType:as}$	92%
RNA1{r(C)p.r(U)p.r(U)p.r(A)p.r(C)p.r(G)p.r(C)p.r(U)p.r(G)p.r(A)p.r(G)p.r(U)p.r(A)p.r(C)p.r(U)p.r(U)p.r(C)p.r(G)p.r(A)p.r(T)p.r(T)}|RNA2{[lna](T)p.r(C)p.r(G)p.r(A)p.r(A)p.r(G)p.[lna](T)p.r(A)p.r(C)p.[lna](T)p.r(C)p.r(A)p.r(G)p.r(C)p.r(G)p.[lna](T)p.r(A)p.r(A)p.r(G)p.[lna](T)p.[lna](T)}$$$RNA1{StrandType:ss}|RNA2{StrandType:as}$	19%
RNA1{r(C)p.r(U)p.r(U)p.r(A)p.r(C)p.r(G)p.r(C)p.r(U)p.r(G)p.r(A)p.r(G)p.r(U)p.r(A)p.r(C)p.r(U)p.r(U)p.r(C)p.r(G)p.r(A)p.r(T)p.r(T)}|RNA2{[lna](T)p.r(C)p.r(G)p.r(A)p.r(A)p.r(G)p.r(U)p.r(A)p.r(C)p.r(U)p.r(C)p.r(A)p.r(G)p.r(C)p.r(G)p.r(U)p.r(A)p.r(A)p.r(G)p.[lna](T)p.[lna](T)}$$$RNA1{StrandType:ss}|RNA2{StrandType:as}$	57%
RNA1{r(C)p.r(U)p.r(U)p.r(A)p.r(C)p.r(G)p.r(C)p.r(U)p.r(G)p.r(A)p.r(G)p.r(U)p.r(A)p.r(C)p.r(U)p.r(U)p.r(C)p.r(G)p.r(A)p.r(T)p.r(T)}|RNA2{r(T)p.r(C)p.[lna](G)p.r(A)p.r(A)p.r(G)p.r(U)p.r(A)p.r(C)p.r(U)p.r(C)p.r(A)p.r(G)p.r(C)p.r(G)p.r(U)p.r(A)p.r(A)p.r(G)p.[lna](T)p.[lna](T)}$$$RNA1{StrandType:ss}|RNA2{StrandType:as}$	90%
RNA1{r(C)p.r(U)p.r(U)p.r(A)p.r(C)p.r(G)p.r(C)p.r(U)p.r(G)p.r(A)p.r(G)p.r(U)p.r(A)p.r(C)p.r(U)p.r(U)p.r(C)p.r(G)p.r(A)p.r(T)p.r(T)}|RNA2{r(T)p.r(C)p.r(G)p.[lna](A)p.r(A)p.r(G)p.r(U)p.r(A)p.r(C)p.r(U)p.r(C)p.r(A)p.r(G)p.r(C)p.r(G)p.r(U)p.r(A)p.r(A)p.r(G)p.[lna](T)p.[lna](T)}$$$RNA1{StrandType:ss}|RNA2{StrandType:as}$	91%
RNA1{r(C)p.r(U)p.r(U)p.r(A)p.r(C)p.r(G)p.r(C)p.r(U)p.r(G)p.r(A)p.r(G)p.r(U)p.r(A)p.r(C)p.r(U)p.r(U)p.r(C)p.r(G)p.r(A)p.r(T)p.r(T)}|RNA2{r(T)p.r(C)p.r(G)p.r(A)p.[lna](A)p.r(G)p.r(U)p.r(A)p.r(C)p.r(U)p.r(C)p.r(A)p.r(G)p.r(C)p.r(G)p.r(U)p.r(A)p.r(A)p.r(G)p.[lna](T)p.[lna](T)}$$$RNA1{StrandType:ss}|RNA2{StrandType:as}$	88%
RNA1{r(C)p.r(U)p.r(U)p.r(A)p.r(C)p.r(G)p.r(C)p.r(U)p.r(G)p.r(A)p.r(G)p.r(U)p.r(A)p.r(C)p.r(U)p.r(U)p.r(C)p.r(G)p.r(A)p.r(T)p.r(T)}|RNA2{r(T)p.r(C)p.r(G)p.r(A)p.r(A)p.[lna](G)p.r(U)p.r(A)p.r(C)p.r(U)p.r(C)p.r(A)p.r(G)p.r(C)p.r(G)p.r(U)p.r(A)p.r(A)p.r(G)p.[lna](T)p.[lna](T)}$$$RNA1{StrandType:ss}|RNA2{StrandType:as}$	85%
RNA1{r(C)p.r(U)p.r(U)p.r(A)p.r(C)p.r(G)p.r(C)p.r(U)p.r(G)p.r(A)p.r(G)p.r(U)p.r(A)p.r(C)p.r(U)p.r(U)p.r(C)p.r(G)p.r(A)p.r(T)p.r(T)}|RNA2{r(T)p.r(C)p.r(G)p.r(A)p.r(A)p.r(G)p.[lna](T)p.r(A)p.r(C)p.r(U)p.r(C)p.r(A)p.r(G)p.r(C)p.r(G)p.r(U)p.r(A)p.r(A)p.r(G)p.[lna](T)p.[lna](T)}$$$RNA1{StrandType:ss}|RNA2{StrandType:as}$	93%
RNA1{r(C)p.r(U)p.r(U)p.r(A)p.r(C)p.r(G)p.r(C)p.r(U)p.r(G)p.r(A)p.r(G)p.r(U)p.r(A)p.r(C)p.r(U)p.r(U)p.r(C)p.r(G)p.r(A)p.r(T)p.r(T)}|RNA2{r(T)p.r(C)p.r(G)p.r(A)p.r(A)p.r(G)p.r(U)p.[lna](A)p.r(C)p.r(U)p.r(C)p.r(A)p.r(G)p.r(C)p.r(G)p.r(U)p.r(A)p.r(A)p.r(G)p.[lna](T)p.[lna](T)}$$$RNA1{StrandType:ss}|RNA2{StrandType:as}$	90%
